Measured values taken from patent publication US20110028441A1, “NOVEL PHENYL-SUBSTITUTED PIPERAZINO-DIHYDROTHIENOPYRIMIDINES” (BOEHRINGER INGELHEIM INTERNATIONAL GMBH, priority 2007, published 2011).

biological target: PDE4B (Homo sapiens, UniProt Q07343); test: Scintillation Proximity (SPA) Assay of PDE4B enzyme inhibition; format: biochemical; details: read-out: % Inhibition PDE4B @ 1 μM
Experimental: The inhibitions (in %) at 1 μM of the individual Example substances are included in the following Tables of Examples and were determined as follows:
The Scintillation Proximity (SPA) Assays (GE Healthcare, No. TRKQ7090) make use of the different affinities of cyclic 3′-5′-adenosine monophosphate (cAMP, low affinity) and linear 5′-adenosine monophosphate (AMP, high affinity) for yttrium silicate scintillator beads. The cAMP specific phosphodiesterase (PDE) PDE4B cleaves the 3′-phosphoester bond of the tritium-labelled [H3]-cAMP to form the [H3]-5′-AMP. Because of its higher affinity for the scintillator beads this [H3]-AMP accumulates on the beads and causes scintillation events (flashes of light) which are measured in a Wallac Microbeta Scintillation Counter.
The test starts with one hours incubation of [H3]-cAMP with the PDE4B enzyme in assay buffer at 30° C., once with the Example substance that is to be tested (in a concentration of 1 μM) and once without the Example substance that is to be tested. After this incubation the reaction is stopped by the addition of the beads. The beads are given an opportunity to settle over the next 45 minutes, then they are measured in the Scintillation Counter. If the substance is capable of inhibiting the enzymatic activity of the PDE4B, less [H3]-AMP is formed during the incubation phase and fewer scintillation events can be measured.

PDE4B, sequence (Q07343 whole entry, species assumed): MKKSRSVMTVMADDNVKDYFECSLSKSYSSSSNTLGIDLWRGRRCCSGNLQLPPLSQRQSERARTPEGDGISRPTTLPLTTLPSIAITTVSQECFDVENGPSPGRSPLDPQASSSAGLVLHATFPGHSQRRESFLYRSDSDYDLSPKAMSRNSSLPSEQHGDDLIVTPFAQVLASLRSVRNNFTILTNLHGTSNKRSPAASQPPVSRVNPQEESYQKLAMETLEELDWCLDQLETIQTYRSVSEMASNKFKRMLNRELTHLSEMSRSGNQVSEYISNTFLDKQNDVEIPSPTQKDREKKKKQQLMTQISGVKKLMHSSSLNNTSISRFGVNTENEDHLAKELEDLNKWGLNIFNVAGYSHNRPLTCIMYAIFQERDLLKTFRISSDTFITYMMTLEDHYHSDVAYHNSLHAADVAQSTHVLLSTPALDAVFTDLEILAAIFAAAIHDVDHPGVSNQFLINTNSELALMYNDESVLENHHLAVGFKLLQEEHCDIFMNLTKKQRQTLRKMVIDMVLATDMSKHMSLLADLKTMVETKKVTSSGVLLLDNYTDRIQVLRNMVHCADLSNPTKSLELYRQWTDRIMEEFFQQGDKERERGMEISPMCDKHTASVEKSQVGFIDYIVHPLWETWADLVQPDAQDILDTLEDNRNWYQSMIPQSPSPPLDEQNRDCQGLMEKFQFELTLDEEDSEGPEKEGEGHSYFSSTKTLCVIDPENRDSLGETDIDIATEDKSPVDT

| SMILES | inhibition at 1 µM [%] |
| --- | --- |
| CN1C[C@@H](Nc2nc(N3CCN(c4ccc(Cl)c(F)c4)CC3)nc3c2[S+]([O-])CC3)CCC1=O (stereo partly drawn) [Example 64, (S)-5-{2-[4-(4-CHLORO-3-FLUOROPHENYL)-PIPERAZIN-1-YL]-5-OXO-6,7-DIHYDRO-5H-5λ^4-THIENO[3,2-D]PYRIMIDIN-4-YLAMINO}-1-METHYLPIPERIDIN-2-ONE] | 94 |
| Cc1cc(Cl)ccc1N1CCN(c2nc3c(c(N[C@H]4CCC(=O)N(C)C4)n2)[S+]([O-])CC3)CC1 (stereo partly drawn) [Example 90, (S)-5-{2-[4-(4-CHLORO-2-METHYLPHENYL)-PIPERAZIN-1-YL]-5-OXO-6,7-DIHYDRO-5H-5λ^4-THIENO[3,2-D]PYRIMIDIN-4-YLAMINO}-1-METHYLPIPERIDIN-2-ONE] | 97 |

same assay, conditions: test substance 1 μM; one hour incubation of [H3]-cAMP with PDE4B enzyme at 30° C.; read-out: % Inhibition PDE4B @ 1 μM

| inhibition at 1 µM [%] | SMILES |
| --- | --- |
| 95 | Cc1cc(Cl)ccc1N1CCN(c2nc3c(c(NC4(CO)CC4)n2)[S+]([O-])CC3)CC1 (stereo not shown) [Example 81, (1-{2-[4-(4-CHLORO-2-METHYLPHENYL)-PIPERAZIN-1-YL]-5-OXO-6,7-DIHYDRO-5H-5λ^4-THIENO[3,2-D]PYRIMIDIN-4-YLAMINO}-CYCLOPROPYL)-METHANOL] |
| 88 | CC(C)[C@H](CO)Nc1nc(N2CCN(c3ccccc3Cl)CC2)nc2c1[S+]([O-])CC2 (stereo partly drawn) [Example 4, (R)-2-{2-[4-(2-CHLOROPHENYL)-PIPERAZIN-1-YL]-5-OXO-6,7-DIHYDRO-5H-5λ^4-THIENO[3,2-D]PYRIMIDIN-4-YLAMINO}-3-METHYLBUTAN-1-OL] |
| 96 | CC(C)[C@H](CO)Nc1nc(N2CCN(c3cc(Cl)cc(Cl)c3)CC2)nc2c1[S+]([O-])CC2 (stereo partly drawn) [Example 68, (R)-2-{2-[4-(3,5-DICHLOROPHENYL)-PIPERAZIN-1-YL]-5-OXO-6,7-DIHYDRO-5H-5λ^4-THIENO[3,2-D]PYRIMIDIN-4-YLAMINO}-3-METHYLBUTAN-1-OL] |
| 96 | [O-][S+]1CCc2nc(N3CCN(c4cc(Cl)cc(Cl)c4)CC3)nc(Nc3cccc(F)c3)c21 (stereo not shown) [Example 99, {2-[4-(3,5-DICHLOROPHENYL)-PIPERAZIN-1-YL]-5-OXO-6,7-DIHYDRO-5H-5λ^4-THIENO[3,2-D]PYRIMIDIN-4-YL}-(3-FLUOROPHENYL)-AMINE] |
| 95 | [O-][S+]1CCc2nc(N3CCN(c4ccc(Cl)c(F)c4)CC3)nc(Nc3cccc(F)c3)c21 (stereo not shown) [Example 63, {2-[4-(4-CHLORO-3-FLUOROPHENYL)-PIPERAZIN-1-YL]-5-OXO-6,7-DIHYDRO-5H-5λ^4-THIENO[3,2-D]PYRIMIDIN-4-YL}-(3-FLUOROPHENYL)-AMINE] |
| 89 | CC(C)C(CO)Nc1nc(N2CCN(c3ccc(Cl)c(C#N)c3)CC2)nc2c1[S+]([O-])CC2 [Example 53, 2-chloro-5-{4-[4-((R)-1-hydroxymethyl-2-methyl-propylamino)-5-oxo-6,7-dihydro-5H-5λ^4-thieno[3,2-d]pyrimidin-2-yl]-piperazin-1-yl}-benzonitrile] |
| 92 | [O-][S+]1CCc2nc(N3CCN(c4ccc(Cl)cc4F)CC3)nc(Nc3cccc(F)c3)c21 (stereo not shown) [Example 109, {2-[4-(4-CHLORO-2-FLUOROPHENYL)-PIPERAZIN-1-YL]-5-OXO-6,7-DIHYDRO-5H-5λ^4-THIENO[3,2-D]PYRIMIDIN-4-YL}-(3-FLUOROPHENYL)-AMINE] |
| 92 | CC(C)[C@H](CO)Nc1nc(N2CCN(c3ccc(Cl)cc3F)CC2)nc2c1[S+]([O-])CC2 (stereo partly drawn) [Example 111, (R)-2-{2-[4-(4-CHLORO-2-FLUOROPHENYL)-PIPERAZIN-1-YL]-5-OXO-6,7-DIHYDRO-5H-5λ^4-THIENO[3,2-D]PYRIMIDIN-4-YLAMINO}-3-METHYLBUTAN-1-OL] |
